The results in this text go back to US10093623B2, “Cyclic amides as MetAP-2 inhibitors” (MERCK PATENT GmbH, priority 2012, dated 2018).

In this assay the target is MetAP-2 (Homo sapiens, UniProt P50579). The assay can be described thus: MetAP-2 activity measurement (coupled enzymatic reactions, Met-Arg-Ser substrate, dianisidine detection at 450 nm). The settings on record: Inhibition of MetAP-2; read-out: IC50 enzyme. The class given is biochemical. The gist of the method:
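Coupled continuous assay with Met-Arg-Ser tripeptide substrate: released methionine oxidised by L-amino acid oxidase to give H2O2, which peroxidase uses to oxidise dianisidine, followed at 450 nm. Activity taken as slope of absorbance versus time over the visually linear region; dianisidine extinction coefficient converts to mol Met per time.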

Sequence of MetAP-2 (P50579 whole entry, species assumed): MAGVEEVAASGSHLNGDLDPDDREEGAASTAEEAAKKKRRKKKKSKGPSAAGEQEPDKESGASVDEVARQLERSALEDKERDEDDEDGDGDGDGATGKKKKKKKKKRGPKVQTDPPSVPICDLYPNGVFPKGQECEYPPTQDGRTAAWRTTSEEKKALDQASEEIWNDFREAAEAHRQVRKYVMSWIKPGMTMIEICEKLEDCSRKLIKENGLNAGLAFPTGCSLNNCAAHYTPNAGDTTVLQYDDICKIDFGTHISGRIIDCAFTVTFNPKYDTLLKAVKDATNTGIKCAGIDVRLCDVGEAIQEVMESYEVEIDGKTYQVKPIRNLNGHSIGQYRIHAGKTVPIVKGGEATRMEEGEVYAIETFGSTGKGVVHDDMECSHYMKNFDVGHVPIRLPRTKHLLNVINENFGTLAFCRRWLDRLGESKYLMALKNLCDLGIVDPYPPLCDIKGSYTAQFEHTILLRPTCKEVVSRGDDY

As to `CCS(=O)(=O)Nc1cccc(N2CC[C@@](O)(C(=O)NCc3cc(F)cc(Cl)c3)C2=O)c1` [A84, N-(3-Chloro-5-fluorobenzyl)-(R)-1-(3-ethanesulfonylaminophenyl)-3-hydroxy-2-oxopyrrolidine-3-carboxamide], the IC50 is 1000 to 10000 nM.

In the case of `COCCn1cc(N2CCC(O)(C(=O)NCc3cc(F)cc(Cl)c3)C2=O)cn1` (stereo not shown) [B82, N-(3-Chloro-5-fluorobenzyl)-3-hydroxy-1-[1-(2-methoxyethyl)-1H-pyrazol-4-yl]-2-oxo-pyrrolidine-3-carboxamide], the half-inhibitory concentration (IC50) fell in the range of 10 to 1000 nM.

With `OC1(CNCc2cc(F)cc(Cl)c2)CCN(c2ccccc2)C1` (stereo not shown) [A120, 3-[(3-chloro-5-fluorobenzylamino)methyl]-1-phenylpyrrolidin-3-ol], the IC50 is over 10000 nM.

In the case of `O=C(NCc1cc(F)cc(Cl)c1)[C@]1(O)CCN(c2cnc3[nH]cnc3c2)C1=O` [B93, N-(3-Chloro-5-fluorobenzyl)-(R)-3-hydroxy-1-(3H-imidazo-[4,5-b]pyridin-6-yl)-2-oxo-pyrrolidine-3-carboxamide], the IC50 fell in the range of 1000 to 10000 nM.

As for `CCOC(=O)c1cc2cc(N3CCC(O)(C(=O)NCc4cc(F)cc(Cl)c4)C3=O)ccc2[nH]1` (stereo not shown) [A205, Ethyl 5-[3-(3-chloro-5-fluorobenzylcarbamoyl)-3-hydroxy-2-oxopyrrolidin-1-yl]-1H-indol-2-carboxylate], the 50% inhibitory concentration (IC50) fell in the range of 10 to 1000 nM.

Regarding `CN(c1cccc(N2CCC(O)(C(=O)NCc3cc(F)cc(Cl)c3)C2=O)c1)S(C)(=O)=O` (stereo not shown) [A73, N-(3-Chloro-5-fluorobenzyl)-3-hydroxy-1-[3-(methanesulfonyl-methylamino)phenyl]-2-oxo-pyrrolidine-3-carboxamide], the 50% inhibitory concentration (IC50) fell in the range of 10 to 1000 nM.

On to `NC(=O)c1cccc(N2CCC(O)(C(=O)NCCc3cccc(F)c3)C2=O)c1` (stereo not shown) [A177, N-[2-(3-Fluorophenyl)ethyl]-1-(3-carbamoylphenyl)-3-hydroxy-2-oxopyrrolidine-3-carboxamide], for which the IC50 was in the range of 10 to 1000 nM.

As for `CCOC(=O)c1cc2cc(N3CC[C@@](O)(C(=O)NCc4cc(F)cc(Cl)c4)C3=O)ccc2[nH]1` [B81, Ethyl 5-[(R)-3-(3-chloro-5-fluorobenzylcarbamoyl)-3-hydroxy-2-oxopyrrolidin-1-yl]-1H-indole-2-carboxylate], the half-inhibitory concentration (IC50) was over 10000 nM.

Regarding `CC(C)(C)OC(=O)N1CC(CN2CCC(O)(C(=O)NCc3cc(F)cc(Cl)c3)C2=O)C1` (stereo not shown) [A213, tert-Butyl 3-[3-(3-chloro-5-fluorobenzylcarbamoyl)-3-hydroxy-2-oxopyrrolidin-1-yl-methyl]-azetidine-1-carboxylate], the IC50 lay within 1000 to 10000 nM.

For `CC(=O)NS(=O)(=O)c1ccc(N2CCC(O)(C(=O)NCc3cc(F)cc(Cl)c3)C2=O)cc1` (stereo not shown) [B118, N-(3-Chloro-5-fluorobenzyl)-1-(4-acetylsulfamoylphenyl)-3-hydroxy-2-oxopyrrolidine-3-carboxamide], the IC50 was in the range of 10 to 1000 nM.

Take `CCN1C[C@@H]2[C@H](C1)[C@H]2N1CCC(O)(C(=O)NCc2cc(F)cc(Cl)c2)C1=O` (stereo partly drawn) [A275, N-(3-Chloro-5-fluorobenzyl)-1-((1S,5R,6S)-3-ethyl-3-aza-bicyclo[3.1.0]hex-6-yl)-3-hydroxy-2-oxopyrrolidine-3-carboxamide]: the IC50 is over 10000 nM.

Turning to `O=C1COc2cc(N3CC[C@@](O)(C(=O)NCc4cc(F)cc(Cl)c4)C3=O)ccc2N1` [A198, N-(3-Chloro-5-fluorobenzyl)-(R)-3-hydroxy-2-oxo-1-(3-oxo-3,4-dihydro-2H-benzo-1,4-oxazin-7-yl)pyrrolidine-3-carboxamide], the half-inhibitory concentration (IC50) is over 10000 nM.

With `O=C1Nc2ccc(N3CC[C@](O)(C(=O)NCc4cc(F)cc(Cl)c4)C3=O)cc2C1(F)F` [A286, N-(3-Chloro-5-fluorobenzyl)-(S)-1-(3,3-difluoro-2-oxo-2,3-dihydro-1H-indol-5-yl)-3-hydroxy-2-oxopyrrolidine-3-carboxamide], the IC50 is 10 to 1000 nM.

In the case of `O=C1CCc2cc(N3CC[C@@](O)(C(=O)NCCc4cc(F)cc(Cl)c4)C3=O)ccc2N1` [A150, N-[2-(3-Chloro-5-fluorophenyl)-ethyl]-(R)-3-hydroxy-2-oxo-1-(2-oxo-1,2,3,4-tetrahydroquinolin-6-yl)pyrrolidine-3-carboxamide], the IC50 was over 10000 nM.

On to `Nc1ccccc1NC(=O)c1cc2cc(N3CC[C@](O)(C(=O)NCc4cc(F)cc(Cl)c4)C3=O)ccc2[nH]1` [B129, N-(2-Aminophenyl)-5-[(S)-3-(3-chloro-5-fluorobenzyl-carbamoyl)-3-hydroxy-2-oxo-pyrrolidin-1-yl]-1H-indole-2-carboxamide], for which the IC50 was in the range of 10 to 1000 nM.

On to `CC(=O)NC1CCCC(N2CCC(O)(C(=O)NCc3cc(F)cc(Cl)c3)C2=O)C1` (stereo not shown) [A126, N-(3-Chloro-5-fluorobenzyl)-1-(3-acetylaminocyclohexyl)-3-hydroxy-2-oxopyrrolidine-3-carboxamide], for which the IC50 lay in the range of 1000 to 10000 nM.

As for `CC(=O)Nc1ccc(N2CCC(O)(C(=O)NCCc3ccccc3C(F)(F)F)C2=O)cn1` (stereo not shown) [A143, N-[2-(2-Trifluoromethylphenyl)-ethyl]-1-(6-acetylaminopyridin-3-yl)-3-hydroxy-2-oxopyrrolidine-3-carboxamide], the 50% inhibitory concentration (IC50) fell in the range of 10 to 1000 nM.

Regarding `Cc1cc(N2CCC(O)(C(=O)NCc3cc(F)cc(Cl)c3)C2=O)cnc1N1CCOCC1=O` (stereo not shown) [A142, N-(3-Chloro-5-fluorobenzyl)-3-hydroxy-1-[5-methyl-6-(3-oxo-morpholin-4-yl)-pyridin-3-yl]-2-oxopyrrolidine-3-carboxamide], the IC50 lay within 10 to 1000 nM.

Regarding `NC(=O)c1cccc(N2CC[C@@](O)(C(=O)NCCc3cc(F)cc(Cl)c3)C2=O)c1` [A159, N-[2-(3-Chloro-5-fluorophenyl)-ethyl]-(R)-1-(3-carbamoyl-phenyl)-3-hydroxy-2-oxo-pyrrolidine-3-carboxamide], the half-inhibitory concentration (IC50) fell in the range of 1000 to 10000 nM.

For the compound `CS(=O)(=O)N1CC[C@@H](N2CCC(O)(C(=O)NCc3cc(F)cc(Cl)c3)C2=O)C1` (stereo partly drawn) [A292, N-(3-Chloro-5-fluorobenzyl)-(R)-3-hydroxy-1′-methanesulfonyl-2-oxo[1,3′]bipyrrolidinyl-3-carboxamide], the IC50 was in the range of 1000 to 10000 nM.

In the case of `NC(=O)c1cc(N2CCC(O)(C(=O)NCc3cc(F)cc(Cl)c3)C2=O)ccc1F` (stereo not shown) [B28, N-(3-Chloro-5-fluorobenzyl)-1-(3-carbamoyl-4-fluorophenyl)-3-hydroxy-2-oxopyrrolidine-3-carboxamide], the half-maximal inhibitory concentration (IC50) fell in the range of 10 to 1000 nM.

With `O=C(NCc1cc(F)cc(Cl)c1)C1(O)CCN(CCc2ccc(F)cc2F)C1=O` (stereo not shown) [A237, N-(3-Chloro-5-fluorobenzyl)-1-[2-(2,4-Difluorophenyl)ethyl]-3-hydroxy-2-oxopyrrolidine-3-carboxamide], the IC50 lay within 1000 to 10000 nM.

With `O=C(NCCCn1ccnc1)[C@@]1(O)CCN(c2ccccc2)C1=O` [A58, N-(3-Imidazol-1-ylpropyl)-(S)-3-hydroxy-2-oxo-1-phenylpyrrolidine-3-carboxamide], the IC50 was over 10000 nM.

For `Cn1cncc1CN1CCC(O)(C(=O)NCc2cc(F)cc(Cl)c2)C1=O` (stereo not shown) [A272, N-(3-Chloro-5-fluorobenzyl)-3-hydroxy-1-(3-methyl-3H-imidazol-4-ylmethyl)-2-oxo-pyrrolidine-3-carboxamide], the IC50 fell in the range of 1000 to 10000 nM.

For the compound `O=C1CCc2cc(N3CC[C@](O)(C(=O)NCc4cccc(F)c4Cl)C3=O)ccc2N1` [B15, N-(2-Chloro-3-fluorobenzyl)-(S)-3-hydroxy-2-oxo-1-(2-oxo-1,2,3,4-tetrahydroquinolin-6-yl)-pyrrolidine-3-carboxamide], the IC50 fell in the range of 10 to 1000 nM.

As for `O=C(NCc1cc(F)cc(Cl)c1)[C@@]1(O)CCN(c2ccc(Br)c(CO)c2)C1=O` [B17, N-(3-Chloro-5-fluorobenzyl)-(S)-1-(4-bromo-3-hydroxymethyl-phenyl)-3-hydroxy-2-oxo-pyrrolidine-3-carboxamide], the IC50 was in the range of 10 to 1000 nM.

As to `O=C1CCc2cc(N3CCC(O)(C(=O)NCCc4cc(F)cc(F)c4)C3=O)ccc2N1` (stereo not shown) [A199, N-[2-(3,5-Difluorophenyl)ethyl]-3-hydroxy-2-oxo-1-(2-oxo-1,2,3,4-tetrahydroquinolin-6-yl)-pyrrolidine-3-carboxamide], the 50% inhibitory concentration (IC50) was 10 to 1000 nM.

In the case of `NC(=O)c1cc2cc(N3CCC(O)(C(=O)NCc4cc(F)cc(Cl)c4)C3=O)ccc2[nH]1` (stereo not shown) [A211, 5-[3-(3-Chloro-5-fluorobenzylcarbamoyl)-3-hydroxy-2-oxopyrrolidin-1-yl]-1H-indole-2-carboxamide], the IC50 is 10 to 1000 nM.

`OC1(CNCc2cc(F)cc(Cl)c2)CCCN(Cc2ccccc2)C1` (stereo not shown) [B19, 1-Benzyl-3-[(3-chloro-5-fluorobenzylamino)methyl]-piperidin-3-ol]: the IC50 was over 10000 nM.

Take `NC(=O)c1cccc(N2CCC(O)(C(=O)NCc3cccc(F)c3Cl)C2=O)c1` (stereo not shown) [A193, N-(2-Chloro-3-fluorobenzyl)-1-(3-carbamoylphenyl)-3-hydroxy-2-oxopyrrolidine-3-carboxamide]: the half-maximal inhibitory concentration (IC50) lay in the range of 10 to 1000 nM.

Regarding `CC(=O)Nc1ccc(N2CCC(O)(C(=O)NCCc3ccccc3F)C2=O)cn1` (stereo not shown) [A175, N-[2-(2-Fluorophenyl)ethyl]-1-(6-acetylaminopyridin-3-yl)-3-hydroxy-2-oxopyrrolidine-3-carboxamide], the IC50 is 10 to 1000 nM.

On to `CNS(=O)(=O)c1ccc(N2CC[C@](O)(C(=O)NCc3cc(F)cc(Cl)c3)C2=O)cc1` [B141, N-(3-Chloro-5-fluorobenzyl)-(S)-3-hydroxy-1-(4-methylsulfamoyl-phenyl)-2-oxopyrrolidine-3-carboxamide], for which the IC50 is 10 to 1000 nM.

Turning to `CC(C)NC(=O)c1cc2cc(N3CC[C@](O)(C(=O)NCc4cc(F)cc(Cl)c4)C3=O)ccc2[nH]1` [B97, N-Isopropyl-5-[(S)-3-(3-chloro-5-fluorobenzylcarbamoyl)-3-hydroxy-2-oxopyrrolidin-1-yl]-1H-indole-2-carboxamide], the half-inhibitory concentration (IC50) lay in the range of 10 to 1000 nM.

In the case of `CC1(C)O[C@H]2[C@H](CCC[C@@H]2N2CCC(O)(C(=O)NCc3cc(F)cc(Cl)c3)C2=O)O1` (stereo partly drawn) [A129, N-(3-Chloro-5-fluorobenzyl)-1-((3aR,4S,7aS)-2,2-dimethyl-hexahydrobenzo-1,3-dioxol-4-yl)-3-hydroxy-2-oxopyrrolidine-3-carboxamide], the concentration for half-maximal inhibition (IC50) fell in the range of 1000 to 10000 nM.

Broadly, the IC50 is the concentration needed to halve the response being measured.
